In patent US12611387B2, “Compound and composition for inducing neuroprotection” (REST THERAPEUTICS, priority 2020, dated 2026):

Experiments:
IL-6 = IL-6 ELISA in hippocampus, Aβ25-35 oligomer neuroprotection design; format: in vivo; details: 0.3 mg/Kg i.p., compared to intoxicated but untreated mice
Method: (§1) The neuroprotective effect of the compounds, i.e. the ability thereof to protect cells from Aβ25-35 oligomer neurotoxicity and neurodegeneration, is also tested (FIG. 10). The test compounds are thus administered on the same day as the injection of the Aβ25-35 oligomers and are continued to be administered on a daily basis up to day 7 after the injection of the oligomers, at which time the mice are subjected to the YMT, PAT, MWT or ORT. The brain's anatomy is analysed and neuronal cells are counted by immunohistochemistry on mice sacrificed at D13. The biochemical analyses for the quantification of markers of oxidative stress and apoptosis were carried out at D16 on a group of mice that had been subjected to the WMT (FIG. 10).
Their brains were removed, and the hippocampi were isolated, weighed and frozen at −80° C. awaiting biochemical analysis.
Interleukin 6 (IL-6), a cytokine inflammatory marker, and the levels of the apoptosis markers Bcl2 and Bax proteins were measured in mouse hippocampi by the ELISA tests listed in Table 1 hereinbelow. Bcl2 is often referred to as an anti-apoptotic marker and Bax as a pro-apoptotic marker. […] After centrifugation (10,000 g, 5 min, 4° C.), the supernatants containing the markers to be measured were aliquoted and stored at −80° C. until the ELISA test was carried out according to the supplier's instructions. […]

lipid peroxidation = experiment: Lipid peroxidation in hippocampus, Aβ25-35 oligomer neuroprotection design; format: in vivo, mice; details: 0.3 mg/Kg
Method: The neuroprotective effect of the compounds, i.e. the ability thereof to protect cells from Aβ25-35 oligomer neurotoxicity and neurodegeneration, is also tested (FIG. 10). The test compounds are thus administered on the same day as the injection of the Aβ25-35 oligomers and are continued to be administered on a daily basis up to day 7 after the injection of the oligomers, at which time the mice are subjected to the YMT, PAT, MWT or ORT. The brain's anatomy is analysed and neuronal cells are counted by immunohistochemistry on mice sacrificed at D13. The biochemical analyses for the quantification of markers of oxidative stress and apoptosis were carried out at D16 on a group of mice that had been subjected to the WMT (FIG. 10). […]
The amount of hydroperoxide present in the samples was measured by quantifying the Fe^3+-xylenol orange complex: in an acidic medium, hydroperoxides oxidise the Fe^2+ to Fe^3+. The latter forms a coloured complex with xylenol orange, the formation whereof was quantified by measuring its absorbance at 580 nm.
After thawing, the hippocampi were homogenised in cold methanol (1/10 w/v), centrifuged at 1000 g for 5 min and the supernatant was collected. […] The absorbance at 580 nm (A5801) was measured and 10 μl of cumene hydroperoxide (CHP, 1 mM) was added and the entirety was incubated for 30 min at ambient temperature. […]

Iba-1 = experiment: Immunohistochemical quantification of Iba-1 (microgliosis); format: in vivo, mice; details: 0.3 mg/Kg i.p.
Method: as §1
They were previously anaesthetised by i.p. injection of 200 μL of a solution of ketamine (80 mg/Kg) and xylazine (10 mg/Kg), then the tissues were fixed by intracardiac perfusion of 50 mL of a saline solution followed by 50 mL of Antigenfix® fixative (Diapath). The samples were kept for a further 48 hours in the fixative at 4° C., and then the mouse brains were stored in a 30% sucrose solution in PBS, before being sliced.
Slices were taken of each area of the brain, in particular the cortex, the nucleus basalis magnocellularis and the hippocampus (i.e. between bregma +1.8 and bregma −2.8 according to the stereotaxic coordinates of the mouse brain, Paxinos et al., 2004). Serial coronal sections with a thickness of 25 μm were cut with a freezing microtome (Microm HM 450, Thermo Fisher) and stored at −20° C. in a cryoprotective solution. […]
Immunohistochemical labelling is carried out in a conventional manner. […] After rinsing with PBS, the sections were mounted in a mounting fluid (ProLong, ThermoFischer) and images of each section were taken with a confocal fluorescence microscope (Leica SPE) for different sub-regions of the hippocampus such as the stratum radiatum (Rad), the stratum moleculare (Mol), the polymorphic layer of the dentate gyrus (PoDG) and for the cortex, the lateral parietal association area (LPtA). […]

[1] = tested on: Aβ25-35 oligomer-intoxicated mice; experiment: Morris water maze test, neuroprotection design; format: in vivo; details: 0.3 mg/Kg, probe test
Method: as §1
This test is used to assess long-term spatial reference memory. […] The animals' swimming behaviour was recorded (Videotrack® software, Viewpoint), and the trajectories, latencies and distances covered were measured. […] Median latency (time taken to find the platform) was calculated for each training day and expressed for the group as the mean latency±standard deviation. […] Each mouse was left in the water for 60 seconds and its swimming behaviour was recorded. The time spent in the north-eastern quadrant, which originally contained the platform (T), was measured and compared to the average time spent in the other quadrants (o).

Compound	IL-6 level in the hippocampus (IL-6)	level of lipid peroxidation in the hippocampus (lipid peroxidation)	Iba-1 labelling (microglial response) (Iba-1; all brain areas tested (Rad, Mol, PoDG, LPtA))	time spent in the training quadrant (learning and long-term spatial memory) [1]	Iba-1 labelling (microglial response) (Iba-1; PoDG area)	Iba-1 labelling (microgliosis) (Iba-1; cortex (LPtA))
NC12CC3CC(C1)CC(CCF)(C3)C2 [FENM, 3-(2-fluoroethyl)adamantan-1-amine]	significantly lower than that of untreated, intoxicated mice	level equivalent to that of the control group	significantly decreases the astrocytic and microglial response in all of the brain areas tested	maintained their learning and memory abilities	–	–
CC12CC3CC(C)(C1)CC(N)(C3)C2 [memantine, 3,5-Dimethyl-1-adamantanamine, reference compound]	did not result in a significant decrease in IL-6 levels	did not significantly decrease the level of lipid peroxidation	–	did not prevent the impairment of learning and memory functions	positive effect in the PoDG area	no effect
